Laboratory results from patent US20250109127A1, “METHODS OF USE OF PHENOXYPROPYLAMINE COMPOUNDS TO TREAT DEPRESSION” (Minerva Neurosciences, Inc., priority 2013, published 2025).
“And” between values parts separate entries of the source, which are not always exact repeats. Equal entries are not always repeated.

Test system: norepinephrin release in the rat prefrontal cortex
Assay: Microdialysis: norepinephrine release in prefrontal cortex after I.P. administration
Type: in vivo
Conditions: for NOREPINEPHRIN in dialysate, MEAN / NOREPINEPHRIN in dialysate, individual animals: Citalopram 10 mg/kg I.P.
Experimental: The aim of the study was to evaluate, using microdialysis, the effects of an intraperitoneal (I.P.) administration in rats of three different doses of SON-117 on dopamine and its metabolites, serotonin and its metabolite (5-HIAA), and norepinephrine levels in prefrontal cortex.
Thirty-two adult male Wistar rats were used for the whole study (4 groups of eight animals planned for the study, Table 1).
Surgery was performed on rats weighing about 300 g at the beginning of the experiments. Rats were anaesthetized with Ketamine (50 mg/kg) & Xylazine (15 mg/kg) by intramuscular administration. The animals were placed in a stereotaxic apparatus in the flat-skull position at a constant setting of −3.3 mm between ear bars and the incisor bar. The animals were treated with a local anesthesic (xylocaine 1%, Astra Zeneca) and an analgesic (Temgesic, from Schering Plough, 0.05 mg/kg, s.c.). A rostrocaudal midline incision was made with a lancet to expose the dorsal skull surface. The “stereotaxic zero” was defined by the Bregma in accordance with Paxinos and Watson's atlas (1986). A hole was drilled in the skull with a drill and the meninges were pierced with a sterile needle to implant a CMA12 guide cannula which later received the dialysis probe.
Coordinates used for implanting guide cannula in prefrontal cortex from Bregma were anteroposterior 3.7 mm, mediolateral 0.8 mm, and dorsoventral −2 mm (top of the probe was at −5 mm). The guide cannula was fixed to the skull with two stainless steel screws (1.88 mm outside diameter) anchored. An application of dental cement was added. A plastic collar allowed each animal to be tethered to a Swivel assembly of the CMA 120 awake animal system. Following surgery, rats were kept in individual cages and allowed to recover for a minimum of 3-5 days before the experimentation. The rats were handled and put in plastic bowl for 10 min at least every day to habituate the animals to their new environment for the dialysis. An I.P. administration with saline was also performed every day.
Dialysis probes (CMA12/3 mm, membrane, 20 kD cut-off, Carnegie Medicine, Stockholm, Sweden), were carefully washed before inserting into the guide cannula. The wash was performed with the artificial cerebrospinal fluid (aCSF) medium (NaCl 147 mM, KCl 2.7 mM, CaCl2 1.2 mM, MgCl2 0.85 mM) at room temperature. The dialysis system was then equilibrated at 20° C. at a perfusion rate of 1 μl/min with a Carnegie pump (CMA100). All catheters (FEP tubing, internal volume of 1.2 μl/10 cm, and tubing adaptors) used for microdialysis were treated in the same conditions.
The probes duly prepared were inserted into the guide cannula and the CMA120 Swivel assembly secured to the animal using a plastic collar. Flow through the dialysis probe with aCSF was maintained at a rate of 1 μl/min during the whole experimentation. The first four fractions (corresponding to 2 hours) were discarded to avoid the effects of parenchymal disturbance and to ensure that an approximate steady-state level was reached. Fractions were then collected over a period of 8.5 h during which time the animals remained quiet. The dialysates were automatically collected with an autosampler (microfraction collector CMA 140, Carnegie Medicin) and stored at −80° C. until analysis. […] Perfusion was then maintained for 7 hours with aCSF. The dialysates (30 μl) were collected into 300 μl vials, transferred into dry ice and then kept frozen (−80° C.) until analysis. Frozen samples were shipped to a partner for analysis. At the end of the microdialysis study, a PBS with colored ink was perfused through the probe in order to visualize the dialyzed area.
Catecholamine assay: Concentrations of dopamine, DOPAC, HVA, 5-HIAA, 5-HT, and norepinephrin were determined for each sample by HPLC coupled with electrochemical detection. […]

In the case of `CN(C)CCCC1(c2ccc(F)cc2)OCc2cc(C#N)ccc21` (stereo not shown) [Citalopram, citalopram, reference compound], the “NOREPINEPHRIN in dialysate, MEAN” value (T0-T30 min) is reported as 82.58 % of respective basal, the “NOREPINEPHRIN in dialysate, MEAN” value (T30-T1 h) is reported as 78.71 % of respective basal and the “NOREPINEPHRIN in dialysate, individual animals” value (T30-T1 h) is reported as 63.38 % of respective basal and 110.18 % of respective basal and 80.74 % of respective basal and 67.88 % of respective basal and 82.89 % of respective basal and 87.03 % of respective basal and 121.77 % of respective basal and 15.77 % of respective basal. For the same molecule, the “NOREPINEPHRIN in dialysate, MEAN” value (T1 h 30-T2 h) was 79.06 % of respective basal, the “NOREPINEPHRIN in dialysate, individual animals” value (T1 h 30-T2 h) was 61.03 % of respective basal and 124.09 % of respective basal and 72.92 % of respective basal and 60.40 % of respective basal and 82.59 % of respective basal and 82.64 % of respective basal and 134.98 % of respective basal and 13.8 % of respective basal and the “NOREPINEPHRIN in dialysate, MEAN” value (T1 h-T1 h 30) was 79.69 % of respective basal. The “NOREPINEPHRIN in dialysate, individual animals” value (T1 h-T1 h 30) was 76.17 % of respective basal and 109.19 % of respective basal and 82.90 % of respective basal and 61.59 % of respective basal and 83.93 % of respective basal and 87.19 % of respective basal and 123.99 % of respective basal and 12.53 % of respective basal, the “NOREPINEPHRIN in dialysate, MEAN” value (T2 h 30-T3 h) was 71.56 % of respective basal and the “NOREPINEPHRIN in dialysate, individual animals” value (T2 h 30-T3 h) was 59.14 % of respective basal and 93.64 % of respective basal and 64.43 % of respective basal and 55.24 % of respective basal and 91.72 % of respective basal and 74.05 % of respective basal and 121.10 % of respective basal and 13.15 % of respective basal. The “NOREPINEPHRIN in dialysate, MEAN” value (T2 h-T2 h 30) was 76.38 % of respective basal, the “NOREPINEPHRIN in dialysate, individual animals” value (T2 h-T2 h 30) was 73.97 % of respective basal and 105.30 % of respective basal and 76.17 % of respective basal and 58.36 % of respective basal and 86.59 % of respective basal and 74.01 % of respective basal and 122.28 % of respective basal and 14.33 % of respective basal and the “NOREPINEPHRIN in dialysate, MEAN” value (T3 h 30-T4 h) was 75.03 % of respective basal. The “NOREPINEPHRIN in dialysate, individual animals” value (T3 h 30-T4 h) was 60.36 % of respective basal and 105.62 % of respective basal and 79.83 % of respective basal and 62.35 % of respective basal and 87.18 % of respective basal and 69.08 % of respective basal and 122.62 % of respective basal and 13.22 % of respective basal, the “NOREPINEPHRIN in dialysate, MEAN” value (T3 h-T3 h 30) was 71.85 % of respective basal and the “NOREPINEPHRIN in dialysate, individual animals” value (T3 h-T3 h 30) was 59.65 % of respective basal and 96.31 % of respective basal and 77.47 % of respective basal and 56.34 % of respective basal and 86.44 % of respective basal and 66.43 % of respective basal and 119.71 % of respective basal and 12.42 % of respective basal. For the same molecule, the “NOREPINEPHRIN in dialysate, MEAN” value (T4 h 30-T5 h) was 79.44 % of respective basal, the “NOREPINEPHRIN in dialysate, individual animals” value (T4 h 30-T5 h) was 76.82 % of respective basal and 116.23 % of respective basal and 73.73 % of respective basal and 66.68 % of respective basal and 84.54 % of respective basal and 70.81 % of respective basal and 127.26 % of respective basal and 19.47 % of respective basal and the “NOREPINEPHRIN in dialysate, MEAN” value (T4 h-T4 h 30) was 79.54 % of respective basal. The “NOREPINEPHRIN in dialysate, individual animals” value (T4 h-T4 h 30) was 77.6 % of respective basal and 102.09 % of respective basal and 77.48 % of respective basal and 63.90 % of respective basal and 92.86 % of respective basal and 82.33 % of respective basal and 128.7 % of respective basal and 11.39 % of respective basal, the “NOREPINEPHRIN in dialysate, MEAN” value (T5 h 30-T6 h) was 81.93 % of respective basal and the “NOREPINEPHRIN in dialysate, individual animals” value (T5 h 30-T6 h) was 48.16 % of respective basal and 103.46 % of respective basal and 105.10 % of respective basal and 86.55 % of respective basal and 85.91 % of respective basal and 79.07 % of respective basal and 122.12 % of respective basal and 25.1 % of respective basal. The “NOREPINEPHRIN in dialysate, MEAN” value (T5 h-T5 h 30) was 77.65 % of respective basal, the “NOREPINEPHRIN in dialysate, individual animals” value (T5 h-T5 h 30) was 88.27 % of respective basal and 76.54 % of respective basal and 75.84 % of respective basal and 77.15 % of respective basal and 75.13 % of respective basal and 134.83 % of respective basal and 15.76 % of respective basal and the “NOREPINEPHRIN in dialysate, MEAN” value (T6 h 30-T7 h) was 79.84 % of respective basal. For the same molecule, the “NOREPINEPHRIN in dialysate, individual animals” value (T6 h 30-T7 h) was 52.47 % of respective basal and 107.42 % of respective basal and 80.22 % of respective basal and 89.35 % of respective basal and 83.18 % of respective basal, the “NOREPINEPHRIN in dialysate, MEAN” value (T6 h-T6 h 30) was 78.38 % of respective basal and the “NOREPINEPHRIN in dialysate, individual animals” value (T6 h-T6 h 30) was 51.36 % of respective basal and 106.33 % of respective basal and 79.91 % of respective basal and 87.03 % of respective basal and 82.07 % of respective basal and 79.77 % of respective basal and 119.62 % of respective basal and 20.91 % of respective basal. For the same molecule, the “NOREPINEPHRIN in dialysate, MEAN” value (T-30 min-T0 (pre-dose)) was 95.22 % of respective basal, the “NOREPINEPHRIN in dialysate, MEAN” value (T-1 h 30-T-1 h (pre-dose)) was 92.87 % of respective basal and the “NOREPINEPHRIN in dialysate, MEAN” value (T-1 h-T-30 min (pre-dose)) was 109.53 % of respective basal. For the same molecule, the “NE concentration in prefrontal cortex, significant and stable slight decrease” value (citalopram 10 mg/kg I.P., from 0.5 h to 7 h after administration) was 72%.
